# Reference: patent US20150209428A1, “PHARMACEUTICAL COMPOSITIONS FOR TOPICAL DELIVERY OF PHOTOSENSITIZERS AND USES THEREOF” (DERMIRA, INC., priority 2012, published 2015)
# Legend:
# [1] = Apparent solubility of lemuteporfin in various solvents (HPLC); format: physicochemical
# From the text: The solubility of lemuteporfin in various solvent compositions is shown in the last column of Table 3. All values were obtained analytically by HPLC analysis.
# Solubility results for lemuteporfin indicated maximum solubility in solvent-based formulations containing primarily benzyl alcohol. The amount of lemuteporfin that can be solubilized in benzyl alcohol following heating is approximately 2.5% w/w. The addition of other solvents reduces solubility by approximately the amount of the new solvent introduced. Diethylene glycol monoethyl ether (DGME) is about 20% as efficient at dissolving lemuteporfin as benzyl alcohol.
# [2] = Solubility of lemuteporfin in the LTS formulation (stirred, sampled, filtered); format: physicochemical; conditions: for Lemuteporfin content (% w/w), solubility in the formulation of Table 5: filtered
# Description: The solution was stirred and samples were removed at various time points, and then filtered to determine the amount of undissolved lemuteporfin. The amount of lemuteporfin that dissolved was approximately 0.048%.
# Studies were conducted to determine the effect of certain of the LTS excipients on the solubility of lemuteporfin.
substance,measurement,setting,value
lemuteporfin,efficiency of DGME at dissolving lemuteporfin relative to benzyl alcohol,[1]; DGME versus benzyl alcohol,about 20%
same,amount of lemuteporfin that can be solubilized in benzyl alcohol,"[1]; benzyl alcohol, following heating",approximately 2.5 % w/w
same,"Apparent Solubility, % w/w Lemuteporfin","[1]; solvent % w/w: Benzyl Alcohol 30, Ethanol (190) 70",0.455 % w/w
same,"Apparent Solubility, % w/w Lemuteporfin","[1]; solvent % w/w: Benzyl Alcohol 30, Oleyl Alcohol 70",0.166 % w/w
same,"Apparent Solubility, % w/w Lemuteporfin","[1]; solvent % w/w: Benzyl Alcohol 40, Isopropyl Myristate 60",0.090 % w/w
same,"Apparent Solubility, % w/w Lemuteporfin","[1]; solvent % w/w: Benzyl Alcohol 50, Ethanol (190) 50",0.453 % w/w
same,"Apparent Solubility, % w/w Lemuteporfin","[1]; solvent % w/w: Benzyl Alcohol 50, Oleic Acid 50",0.409 % w/w
same,"Apparent Solubility, % w/w Lemuteporfin","[1]; solvent % w/w: Benzyl Alcohol 50, Oleyl Alcohol 50",0.228 % w/w
same,"Apparent Solubility, % w/w Lemuteporfin","[1]; solvent % w/w: Benzyl Alcohol 50, Propylene Glycol 50",0.494 % w/w
same,"Apparent Solubility, % w/w Lemuteporfin","[1]; solvent % w/w: Benzyl Alcohol 90, Isopropyl Myristate 10",2.30 % w/w
same,"Apparent Solubility, % w/w Lemuteporfin","[1]; solvent % w/w: Benzyl Alcohol 90, Oleic Acid 10",2.33 % w/w
same,"Apparent Solubility, % w/w Lemuteporfin","[1]; solvent % w/w: Benzyl Alcohol 90, Oleyl Alcohol 5, Oleic Acid 5",2.22 % w/w
same,"Apparent Solubility, % w/w Lemuteporfin","[1]; solvent % w/w: Benzyl Alcohol 90, Oleyl Alcohol 10",2.24 % w/w
same,"Apparent Solubility, % w/w Lemuteporfin",[1]; solvent % w/w: Benzyl Alcohol 100,2.55 % w/w
same,"Apparent Solubility, % w/w Lemuteporfin","[1]; solvent % w/w: DGME 45, Benzyl Alcohol 45, Oleyl Alcohol 5, Oleic Acid 5",1.373 % w/w
same,"Apparent Solubility, % w/w Lemuteporfin","[1]; solvent % w/w: DGME 50, Benzyl Alcohol 15, Oleic Acid 35",0.230 % w/w
same,"Apparent Solubility, % w/w Lemuteporfin","[1]; solvent % w/w: DGME 50, Benzyl Alcohol 15, Oleyl Alcohol 35",0.200 % w/w
same,"Apparent Solubility, % w/w Lemuteporfin","[1]; solvent % w/w: DGME 50, Benzyl Alcohol 50",1.57 % w/w
same,"Apparent Solubility, % w/w Lemuteporfin","[1]; solvent % w/w: DGME 52, Benzyl Alcohol 16, Oleyl Alcohol 16, Oleic Acid 16",0.210 % w/w
same,"Apparent Solubility, % w/w Lemuteporfin","[1]; solvent % w/w: DGME 65, Oleyl Alcohol 17.5, Oleic Acid 17.5",0.271 % w/w
same,"Apparent Solubility, % w/w Lemuteporfin","[1]; solvent % w/w: DGME 65, Oleyl Alcohol 35",0.430 % w/w
same,"Apparent Solubility, % w/w Lemuteporfin","[1]; solvent % w/w: DGME 90, Isopropyl Myristate 10",0.430 % w/w
same,"Apparent Solubility, % w/w Lemuteporfin","[1]; solvent % w/w: DGME 90, Oleyl Alcohol 5, Oleic Acid 5",0.420 % w/w
same,"Apparent Solubility, % w/w Lemuteporfin","[1]; solvent % w/w: DGME 90, Oleyl Alcohol 10",0.420 % w/w
same,solubility of lemuteporfin in LTS solution system,[2]; isopropyl alcohol removed (data not shown),0.07 % w/w
same,amount of lemuteporfin that dissolved in the Table 5 components,[2]; room temperature,approximately 0.048%
same,"Lemuteporfin content (% w/w), solubility in the formulation of Table 5","[2]; room temperature, time point 0.17 hours",0.0241 % w/w
same,"Lemuteporfin content (% w/w), solubility in the formulation of Table 5","[2]; room temperature, time point 2.47 hours",0.0482 % w/w
same,"Lemuteporfin content (% w/w), solubility in the formulation of Table 5","[2]; room temperature, time point 4.37 hours",0.0453 % w/w
same,"Lemuteporfin content (% w/w), solubility in the formulation of Table 5","[2]; room temperature, time point 6.37 hours",0.0463 % w/w
same,"Lemuteporfin content (% w/w), solubility in the formulation of Table 5","[2]; room temperature, time point 23.5 hours",0.0370 % w/w
same,solubility of lemuteporfin in LTS solution system,[2]; with isopropyl alcohol (data not shown),approximately 0.03 % w/w
same,solubility of lemuteporfin in LTS solution system,[2]; with polysorbate 80 (data not shown),0.037 % w/w
same,solubility of lemuteporfin in LTS solution system,[2]; without polysorbate 80 (data not shown),0.027 % w/w
